Here are results for 4 compounds from patent publication US8575091B1, “Amylin analogues and pharmaceutical compositions thereof” (Novo Nordisk A/S, priority 2012, dated 2013).

Numbered stars: 1 amine (or outer) side, 2 acyl side, 3 side chain; on linkers, the order of the positions; unused ones are H or OH. Bridge positions count the residues as written; N and C are the ends. Side chains are listed from the residue outwards. Peptide text beside a SMILES is read from it. * marks the point of attachment. C20 diacid = O=C(O)CCCCCCCCCCCCCCCCCCC(=O)*; γGlu = O=C(O)[C@H](CCC(=O)[*:2])N[*:1]

For orientation: EC50 means the concentration needed to bring the measured effect to its halfway point. Usually IC50 stands for the concentration needed to halve the response being measured.

Experiment [1] concerns the target T1, human amylin receptor (amylin 3(a) receptor: human calcitonin receptor + RAMP-3) (Homo sapiens, UniProt O60896+P30988).
T1 construct: expressed in transfected cells
T1 sequence (P30988 25-474): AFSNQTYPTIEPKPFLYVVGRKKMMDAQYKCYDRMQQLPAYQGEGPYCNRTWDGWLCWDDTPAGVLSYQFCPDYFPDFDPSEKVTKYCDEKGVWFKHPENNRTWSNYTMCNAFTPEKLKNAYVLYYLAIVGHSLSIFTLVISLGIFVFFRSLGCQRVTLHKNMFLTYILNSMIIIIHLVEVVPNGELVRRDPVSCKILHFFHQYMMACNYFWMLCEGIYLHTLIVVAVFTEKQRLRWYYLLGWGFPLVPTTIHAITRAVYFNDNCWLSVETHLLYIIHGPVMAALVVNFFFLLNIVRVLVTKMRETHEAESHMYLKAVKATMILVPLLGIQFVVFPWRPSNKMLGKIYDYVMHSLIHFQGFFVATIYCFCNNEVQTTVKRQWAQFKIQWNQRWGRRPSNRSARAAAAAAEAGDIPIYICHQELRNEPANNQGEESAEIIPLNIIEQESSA
T1 sequence (O60896 24-148 partner): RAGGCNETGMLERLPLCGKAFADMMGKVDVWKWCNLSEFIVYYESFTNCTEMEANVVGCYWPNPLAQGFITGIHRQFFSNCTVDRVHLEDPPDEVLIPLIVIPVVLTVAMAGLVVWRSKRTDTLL
Nature of the experiment: Assay (II)a functional assay, human amylin receptor (CRE luciferase, BHK cells). The class given is cell-based. Conditions: for EC50: functional assay, human amylin receptor, read-out: hAmylin-R funct. EC50.

Experiment [2] has as its target T2, human calcitonin receptor (Homo sapiens, UniProt P30988).
T2 construct: expressed in transfected cells
T2 sequence (P30988 25-474): T1 sequence (P30988 25-474)
Nature of the experiment: Assay (II)a functional assay, human calcitonin receptor (CRE luciferase, BHK cells).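 Further: luminescence from a CRE-driven luciferase reporter, read by single photon counting after cells were exposed to test samples for 3 h at 37 °C under 5% CO2.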 The class given is cell-based. Conditions: read-out: hCTR funct. EC50.

Another experiment deals with T3, human amylin receptor (Homo sapiens, UniProt O60896+P30988).
T3 construct: expressed in transfected cells
T3 sequence (P30988 25-474): T1 sequence (P30988 25-474)
T3 sequence (O60896 24-148 partner): T1 sequence (O60896 24-148 partner)
Nature of the experiment: Assay (V) binding to the human amylin receptor (SPA, 125I-rat amylin). Conditions: human amylin receptor membranes, SPA; read-out: hAmylin-R bind IC50. The method, boiled down: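 IC50, taken as receptor affinity, came from one-site binding competition analysis of scintillation proximity counts. Amylin 3(a)/CRE-luc cell membranes (35 ng/μL final) were mixed with SPA beads (0.05 mg/well) in 50 mM Hepes pH 7.4 containing CaCl2, MgCl2, 0.1% OA and 0.02% Tween20.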

Experiment [3] addresses T2, human calcitonin receptor. Kind of experiment: Assay (VII) binding to the human calcitonin receptor (SPA, 125I-Calcitonin).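 Further: cell membranes coupled to SPA beads, competitive displacement read by scintillation counting, IC50 derived from a one-site competition fit as a measure of receptor affinity.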 Conditions: read-out: hCTR bind IC50.
[4] abbreviates: Table 6, human functional selectivity (hCTR EC50 / hAmylin-R EC50).
The mark [5] stands for this setting: Table 6a, human functional selectivity (hCTR EC50 / hAmylin-R EC50), at least 5.
Where [6] appears, read: Table 6j, hCTR funct. EC50 / hAmylin-R funct. EC50.
[7] abbreviates: Table 6k, hCTR funct. EC50 / hAmylin-R funct. EC50.

Regarding `CC[C@H](C)[C@H](NC(=O)[C@H](C)NC(=O)CNC(=O)[C@H](Cc1ccccc1)NC(=O)[C@H](CC(N)=O)NC(=O)[C@@H]1CCCN1C(=O)[C@H](CO)NC(=O)[C@H](CO)NC(=O)[C@H](Cc1c[nH]cn1)NC(=O)[C@H](CCCNC(=N)N)NC(=O)[C@H](CC(C)C)NC(=O)[C@H](Cc1ccccc1)NC(=O)[C@H](C)NC(=O)[C@H](C)NC(=O)[C@H](CC(C)C)NC(=O)[C@H](CCCNC(=N)N)NC(=O)[C@H](CCC(N)=O)NC(=O)[C@@H](NC(=O)[C@H](C)NC(=O)[C@@H]1CSSC[C@H](NC(=O)[C@@H](N)CCCCNC(=O)CC[C@H](NC(=O)CCCCCCCCCCCCCCCCCCC(=O)O)C(=O)O)C(=O)N[C@@H](CC(N)=O)C(=O)N[C@@H]([C@@H](C)O)C(=O)N[C@@H](C)C(=O)N[C@@H]([C@@H](C)O)C(=O)N1)[C@@H](C)O)C(=O)N1CCC[C@H]1C(=O)N[C@@H](CO)C(=O)N[C@@H](CO)C(=O)N[C@H](C(=O)N[C@@H](CC(N)=O)C(=O)N[C@H](C(=O)NCC(=O)N[C@@H](Cc1c[nH]cn1)C(=O)N[C@@H](CC(N)=O)C(=O)N[C@H](C(=O)N[C@@H](Cc1ccc(O)cc1)C(N)=O)[C@@H](C)O)C(C)C)[C@@H](C)O` [Example 93] (H-K([γGlu-C20 diacid])CNTATCATQRLAAFLRHSSPNFGAIPSSTNVGHNTY-NH2; disulfide 2-7), the “Ratio hCT/hAmylin funct.” value in experiment [1] (setting [4]), in experiment [1] (setting [5]), in experiment [1] (setting [6]) and in experiment [1] (setting [7]) was 9.7 each time. Moreover, the EC50 amounted to 0.118 nM in experiment [1] and 1.15 nM in experiment [2]. The values for the IC50 (at human amylin receptor; in experiment [3]) were 0.176 nM and 17.8 nM, respectively.

As for `CC[C@H](C)[C@H](NC(=O)[C@H](C)NC(=O)CNC(=O)[C@H](Cc1ccccc1)NC(=O)[C@H](CC(N)=O)NC(=O)[C@@H]1CCCN1C(=O)[C@H](CO)NC(=O)[C@H](CO)NC(=O)[C@H](Cc1c[nH]cn1)NC(=O)[C@H](CCCNC(=N)N)NC(=O)[C@H](CC(C)C)NC(=O)[C@H](Cc1ccccc1)NC(=O)[C@H](CC(N)=O)NC(=O)[C@H](C)NC(=O)[C@H](CC(C)C)NC(=O)[C@H](CCCNC(=N)N)NC(=O)[C@H](CCC(N)=O)NC(=O)[C@@H](NC(=O)[C@H](C)NC(=O)[C@@H]1CSSC[C@H](NC(=O)[C@@H](N)CCCCNC(=O)COCCOCCNC(=O)COCCOCCNC(=O)CC[C@H](NC(=O)CCCCCCCCCCCCCCCCCCC(=O)O)C(=O)O)C(=O)N[C@@H](CC(N)=O)C(=O)N[C@@H]([C@@H](C)O)C(=O)N[C@@H](C)C(=O)N[C@@H]([C@@H](C)O)C(=O)N1)[C@@H](C)O)C(=O)N1CCC[C@H]1C(=O)N[C@@H](CO)C(=O)N[C@@H](CO)C(=O)N[C@H](C(=O)N1CCC[C@H]1C(=O)N[C@H](C(=O)NCC(=O)N[C@@H](CO)C(=O)N[C@@H](CC(N)=O)C(=O)N[C@H](C(=O)N[C@@H](Cc1ccc(O)cc1)C(N)=O)[C@@H](C)O)C(C)C)[C@@H](C)O` [Example 96], the “Ratio hCT/hAmylin funct.” value in experiment [1] (setting [4]), in experiment [1] (setting [5]), in experiment [1] (setting [6]) and in experiment [1] (setting [7]) was 21.0 in each case. Further, the figures for the EC50 in experiment [1] and in experiment [2] were 0.181 nM and 3.8 nM, respectively. In addition, the IC50 was determined as 0.166 nM on human amylin receptor and 13.2 nM in experiment [3].

Consider `CC[C@H](C)[C@H](NC(=O)[C@H](C)NC(=O)CNC(=O)[C@H](Cc1ccccc1)NC(=O)[C@H](CC(N)=O)NC(=O)[C@@H]1CCCN1C(=O)[C@H](CO)NC(=O)[C@H](CO)NC(=O)[C@H](Cc1c[nH]cn1)NC(=O)[C@H](CCCNC(=N)N)NC(=O)[C@H](CC(C)C)NC(=O)[C@H](Cc1ccccc1)NC(=O)[C@H](CC(N)=O)NC(=O)[C@H](C)NC(=O)[C@H](CC(C)C)NC(=O)[C@H](CCCNC(=N)N)NC(=O)[C@H](CCC(N)=O)NC(=O)[C@@H](NC(=O)[C@H](C)NC(=O)[C@@H]1CSSC[C@H](NC(=O)[C@@H](N)CCCCNC(=O)COCCOCCNC(=O)COCCOCCNC(=O)CC[C@H](NC(=O)CCCCCCCCCCCCCCCCCCC(=O)O)C(=O)O)C(=O)N[C@@H](CC(N)=O)C(=O)N[C@@H]([C@@H](C)O)C(=O)N[C@@H](C)C(=O)N[C@@H]([C@@H](C)O)C(=O)N1)[C@@H](C)O)C(=O)N1CCC[C@H]1C(=O)N[C@@H](CO)C(=O)N[C@@H](CO)C(=O)N[C@H](C(=O)N[C@@H](CC(N)=O)C(=O)N[C@H](C(=O)NCC(=O)N1CCC[C@H]1C(=O)N[C@@H](CC(N)=O)C(=O)N[C@H](C(=O)N[C@@H](Cc1ccc(O)cc1)C(N)=O)[C@@H](C)O)C(C)C)[C@@H](C)O` [Example 98], for which the EC50 in experiment [1] was 0.084 nM; in experiment [2], 1.63 nM. Also, the IC50 at human amylin receptor turned out to be 0.091 nM; in experiment [3], 6.74 nM.

On to `CC[C@H](C)[C@H](NC(=O)[C@H](C)NC(=O)CNC(=O)[C@H](Cc1ccccc1)NC(=O)[C@H](CC(N)=O)NC(=O)[C@@H]1CCCN1C(=O)[C@H](CO)NC(=O)[C@H](CO)NC(=O)[C@H](Cc1c[nH]cn1)NC(=O)[C@H](CCCNC(=N)N)NC(=O)[C@H](CC(C)C)NC(=O)[C@H](Cc1ccccc1)NC(=O)[C@H](Cc1c[nH]cn1)NC(=O)[C@H](C)NC(=O)[C@H](CC(C)C)NC(=O)[C@H](CCCNC(=N)N)NC(=O)[C@H](CCC(N)=O)NC(=O)[C@@H](NC(=O)[C@H](C)NC(=O)[C@@H]1CSSC[C@H](NC(=O)[C@H](CCCNC(=N)N)NC(=O)CNC(=O)CC[C@H](NC(=O)CCCCCCCCCCCCCCCCCCC(=O)O)C(=O)O)C(=O)N[C@@H](CC(N)=O)C(=O)N[C@@H]([C@@H](C)O)C(=O)N[C@@H](C)C(=O)N[C@@H]([C@@H](C)O)C(=O)N1)[C@@H](C)O)C(=O)N1CCC[C@H]1C(=O)N[C@@H](CO)C(=O)N[C@@H](CO)C(=O)N[C@H](C(=O)N[C@@H](CC(N)=O)C(=O)N[C@H](C(=O)NCC(=O)N[C@@H](CO)C(=O)N[C@@H](CC(N)=O)C(=O)N[C@H](C(=O)N[C@@H](Cc1ccc(O)cc1)C(N)=O)[C@@H](C)O)C(C)C)[C@@H](C)O` [Example 99] ({C20 diacid-γGlu}-GRCNTATCATQRLAHFLRHSSPNFGAIPSSTNVGSNTY-NH2; disulfide 3-8), for which the “Ratio hCT/hAmylin funct.” value in experiment [1] (setting [4]), in experiment [1] (setting [5]), in experiment [1] (setting [6]) and in experiment [1] (setting [7]) was 10.0 each time. Also, the EC50 was determined as 0.082 nM in experiment [1] and 0.818 nM in experiment [2]. The IC50 came to 0.348 nM at human amylin receptor and 35 nM in experiment [3].
